Reference: patent US20250250292A1, “DELIVERY SYSTEM TO TARGET GRAM-NEGATIVE BACTERIA” (priority 2022, published 2025)

Test system: MRC5 fibroblast cells
Experiment: Cel Titer Glo cytotoxicity in MRC5 cells
Format: cell-based
Details: Homo sapiens; Table 1, TPP+ linkers, MRC5 cells, 72-hour incubation
Experimental: In order to facilitate development of the TPP containing antibiotics, a series of TPP linkers were prepared and tested for their toxicity in MRC5 cells. This library of linkers are shown below: The toxicity of these linkers in MRC5 cells after a 72 hour incubation.

Row | Structure (SMILES) | IC50
1 | O=C(O)CCCCC[P+](c1ccccc1)(c1ccccc1)c1ccccc1 [AP-3-195] | > 90 µM
2 | O=C(O)CC[P+](c1ccccc1)(c1ccccc1)c1ccccc1 [AP-4-8] | > 90 µM
3 | OCCCCCC[P+](c1ccccc1)(c1ccccc1)c1ccccc1 [AP-5-531] | > 90 µM
4 | OCCC[P+](c1ccccc1)(c1ccccc1)c1ccccc1 [AP-7-242] | > 90 µM
5 | CC(C)(O)C[P+](c1ccccc1)(c1ccccc1)c1ccccc1 [AP-7-253] | > 90 µM
6 | OCc1ccc([P+](c2ccccc2)(c2ccccc2)c2ccccc2)cc1 [AP-8-98] | 57.6 µM
7 | O=C(O)c1ccc([P+](c2ccccc2)(c2ccccc2)c2ccccc2)cc1 [AP-8-99-1] | > 90 µM
8 | O=C(OCCOCCO)c1ccc([P+](c2ccccc2)(c2ccccc2)c2ccccc2)cc1 [AP-8-99-2] | > 90 µM
